This note sets out measurements from PubChem BioAssay AID1241 (SRMLSC, 2008).

Active and inactive are the calls of the source. How the calls were made is not given here.

The nature of this test: NF-kB promoter reporter activators, neuronal cells, dose response, cell-based, SH-SY5Y, luciferase (AID 1241). To be noted: fold induction.
Consider `Cc1ccc(C(=O)c2cc([N+](=O)[O-])ccc2N2CCOCC2)c(C)c1`, for which the EC50 was 3030 nM.
For `O=C1CCOc2cc(OCc3ccccc3)ccc21`, the concentration for a half-maximal effect (EC50) is 824 nM.
In the case of `O=C(CC(Nc1ccc(F)cc1)C(=O)O)c1ccccc1` (centres undefined) it was 1500 nM; in that of `CC(C)(C)C(=O)Nc1nc(-c2ccc3c(c2)OCO3)cs1`, 2660 nM.
As for `O=C(/C=C/Nc1ccccc1F)c1ccc(Br)cc1`, the figure is 595 nM; as for `Cc1cc(NC(=O)c2ccccc2)sc1C`, 17300 nM.
In the case of `CC(C)(C)c1ccc(C(=O)/C=C2\NC(=O)CS2)cc1` it was 1140 nM.
As to `COc1ccc(/C=C/c2nc(-c3ccccc3O)n[nH]2)cc1`, the EC50 is 2920 nM.
As for `O=C(Nc1ccc2oc(-c3ccccc3F)nc2c1)c1ncn[nH]1`, the figure is 2110 nM; as for `CCc1ccc(-c2cn3c(n2)SCC3)cc1`, 9880 nM; as for `O=[N+]([O-])c1ccccc1OCc1nc(-c2cccs2)no1`, 1720 nM.
Consider `O=[N+]([O-])c1ccc(N/N=C/c2ccc[nH]2)cc1`, for which the EC50 was 3630 nM.
As for `Cc1ccc(NC(=O)COc2ccccc2C=O)cc1Cl`, the figure is 3880 nM; as for `O=C(c1cc(-c2cccc(O)c2)on1)N1CCCCC1`, 5510 nM.
As for `c1ccc(N2CCN(c3cnc4ccccc4n3)CC2)cc1`, the figure is 1610 nM; as for `Oc1cccc(/C=N/Nc2cccc3cccnc23)c1`, 1350 nM; as for `CCS/C(N)=N/N=C/c1cc(C)ccc1O`, 3310 nM.
As for `CSc1ccc(/C=C/C(=O)Nc2ccccc2)cc1`, the figure is 242 nM.
On to `CCCCc1ccc(NC(=O)c2cnccn2)cc1`, for which the EC50 was 250 nM.
As for `CCNc1nc(N)nc(-c2cc(Cl)ccc2O)n1`, the figure is 847 nM; as for `CC(C)(C)c1ccc2c(c1)C(=O)c1ccccc1C2=O`, 3190 nM; as for `Cc1cccc(NC(=O)/C=C/c2ccc3c(c2)OCO3)n1`, 2510 nM.
As to `Cn1ccc(C(=O)Nc2ccc(Br)cc2Br)n1`, the EC50 was 29500 nM.
In the case of `Cc1cc(C=C2C(=O)c3ccccc3C2=O)c(C)n1C` it was 2790 nM.
As for `O=C(/C=C/Nc1ccc(Oc2ccccc2)cc1)c1ccco1`, the figure is 1210 nM; as for `Clc1cccc(-c2nnc(-c3ccccc3)o2)c1`, 1670 nM; as for `Cc1cccc(Nc2nc3ccccc3s2)c1C`, 4270 nM.
In the case of `COc1cc(/C=N/O)ccc1OCc1ccc(Cl)cc1` it was 882 nM.
On to `Cc1cccc(Nc2nc(-c3ccccn3)cs2)n1`, for which the EC50 is 1190 nM.
With `CCOC(=O)c1sc(NC(=O)Nc2ccccc2)cc1C`, the EC50 was 753 nM.
For `CCOc1ccc2nc(NC(=O)Nc3cccs3)sc2c1`, the EC50 was 1680 nM.
As for `Cc1ccc(Cc2cnc(NC(=O)c3ccco3)s2)cc1`, the figure is 1340 nM; as for `Cc1ccc(C(=O)Nc2ccc(Cl)cn2)cc1`, 17300 nM.
As for `COc1ccccc1Nc1nc(-c2cccs2)cs1`, the figure is 3680 nM; as for `Cc1ccc(C)c(NC(=S)c2ccccn2)c1`, 6690 nM.
As for `Cc1ccc2nc(-c3ccc(NC(=O)COC(=O)c4cncc(Br)c4)cc3)sc2c1`, the figure is 393 nM; as for `O=C(NCCSc1ccccn1)c1ccc(Cl)cc1`, 2700 nM; as for `O=C(N/N=C/c1cccc(F)c1)c1csc2c1CCCC2`, 21900 nM.
`COc1ccc(Cn2c(/C=C/c3ccccc3)nc3ccccc32)cc1`: the EC50 was 4870 nM.
In the case of `Cc1nc(Sc2nnnn2C)c2c3c(sc2n1)CCC3` it was 1590 nM; in that of `Nc1nc2ccc(-c3nc4ccccc4o3)cc2s1`, 1390 nM; in that of `O=C(NCCCn1ccnc1)c1cc(-c2cccs2)on1`, 24100 nM.
In the case of `COc1ccc(-c2cn3cc(C)ccc3n2)cc1Br` it was 327 nM; in that of `CCc1ccc(-c2cc(N)n(-c3ccccc3)n2)cc1`, 16400 nM; in that of `COCCNC(=O)/C(C#N)=C/c1cc(C)n(-c2ccc(C)cc2)c1C`, 5600 nM.
As for `COc1ccc(-c2coc3cc(OC)cc(O)c3c2=O)cc1`, the figure is 1720 nM.
Take `O=C(/C=C/c1ccc(Cl)cc1)Nc1nccs1`: the EC50 was 793 nM.
Consider `O=C(Nc1ccc2sccc2c1)c1ccc(Cl)s1`, for which the 50% effective concentration (EC50) is 511 nM.
As for `CCOC(=O)c1sc(=NC(=O)c2cccs2)n(C)c1C`, the figure is 778 nM; as for `O=C(Nc1cccnc1)c1cc2c(ccc3ccccc32)o1`, 3460 nM; as for `O=C(c1ccccc1)c1cnc(-c2ccc(Cl)cc2)s1`, 1250 nM.
As for `CCc1sc(C(=O)N2CCc3ccccc32)cc1C`, the figure is 1690 nM; as for `CC(C)(C)c1ccc(C(=O)Nc2cccc([N+](=O)[O-])c2)cc1`, 15800 nM; as for `O=C(Nc1ccc2c(c1)OCCO2)NC1CCCCC1`, 18200 nM.
In the case of `CN1/C(=C\C(=O)c2cccs2)Sc2ccccc21` it was 1280 nM.
Consider `CC(=O)c1ccc(NC(=O)/C(Cl)=C/c2ccccc2)cc1`, for which the EC50 was 4310 nM.
`FC(F)(F)c1cc(Cl)c2nc(-c3ccccc3)cn2c1`: the EC50 is 5670 nM.
As for `CN1CCN(Cn2cc(/C=C/C(=O)c3ccccc3)c3ccccc32)CC1`, the figure is 3610 nM; as for `N/C(=N\OC(=O)c1ccccc1Cl)c1ccccc1`, 956 nM; as for `Oc1ccc(-c2csc(Nc3ncccn3)n2)c(O)c1`, 945 nM.
As to `CCOC(=O)C1CCN(Cc2ccc(O)c3ncccc23)CC1`, the EC50 was 2510 nM.
For the compound `Fc1cccc(F)c1CSc1nc2ccccc2[nH]1`, the EC50 is 4340 nM.
As for `CN(C)c1ccc(/C=N/NC(=O)c2ccco2)cc1`, the figure is 18200 nM; as for `O=C(NCCC1=CCCCC1)Nc1ccc2nsnc2c1`, 4770 nM.
`CCc1ccc(NC(=O)c2cnn(-c3ccccc3)c2C)cc1`: the concentration for a half-maximal effect (EC50) is 2560 nM.
For `COc1ccc(C(=O)/C=C/Nc2ccc(C)cn2)cc1OC`, the EC50 was 6490 nM.
With `COc1ccc(-c2cn3ccc4ccccc4c3n2)cc1`, the EC50 is 716 nM.
In the case of `COc1ccc(C2CC(c3c(O)cc(C)oc3=O)=NCCS2)c(OC)c1` (centres undefined) it was 2330 nM; in that of `CCOC(=O)c1cnc(Nc2nc3ccccc3o2)nc1CSC(=S)N(CC)CC`, 2320 nM; in that of `C(=N\Nc1nc(-c2ccccc2)cs1)/c1ccco1`, 1700 nM.
As for `C/C(=N\Nc1cccc2cccnc12)c1ccccc1O`, the figure is 1010 nM.
In the case of `Fc1ccccc1/C=C/c1ccc2ccccc2n1` it was 319 nM; in that of `O=C(Nc1nc2ccc(F)cc2s1)c1cccs1`, 4570 nM; in that of `Oc1ccccc1-c1cc(-c2ccccc2)no1`, 1780 nM.
On to `COc1ccc(C(=O)NCCSc2ccccc2)cc1`, for which the EC50 was 956 nM.
In the case of `N/C(=N\OC(=O)c1cccc(Cl)c1)c1ccccn1` it was 1950 nM.
In the case of `CCOC(=O)c1sc(=NC(=O)c2ccccc2)n(C)c1C` it was 2230 nM.
In the case of `N#C/C(=N\Nc1ccccc1[N+](=O)[O-])C(=N)N1CCCCC1` it was 6940 nM.
Regarding `CC1CCN(C(=O)c2cc(-c3ccccc3O)on2)CC1`, the 50% effective concentration (EC50) was 8790 nM.
As for `NC(=O)c1ccccc1N/C=C/C(=O)c1ccc(Cl)cc1`, the figure is 5140 nM; as for `CCC(=O)NC(c1ccccc1OC)c1ccc2cccnc2c1O` (centres undefined), 8390 nM.
As for `O=C(Nc1nc(-c2ccc3c(c2)OCCO3)cs1)C1CCCC1`, the figure is 13700 nM; as for `O=C(Nc1nc2ccccc2s1)c1ccc2c(c1)OCO2`, 138 nM.
As for `COc1ccc(C(=O)/C=C/Nc2cccc(O)c2)cc1`, the figure is 986 nM; as for `O=C(c1ccc(Cl)cc1)c1coc2ccc(O)cc12`, 3200 nM.
Regarding `Cc1ccc2nc(-c3ccc(NC(=O)COC(=O)c4ccc([N+](=O)[O-])o4)cc3)sc2c1`, the EC50 was 437 nM.
Regarding `CN1CCN(Cc2cc(COCc3ccccc3)c3cccnc3c2O)CC1`, the EC50 was 11000 nM.
In the case of `CCn1c(/C=C/c2ccccc2)nc2ccccc21` it was 1580 nM.
Consider `CCOc1cccc2cc(-c3csc(NC(=O)CCC(=O)NCCN4CCCCC4C)n3)c(=O)oc12` (centres undefined), for which the EC50 is 2760 nM.
As for `CCC(=O)NC(=Nc1nc2ccccc2s1)NC(=O)CC`, the EC50 was 4450 nM.
In the case of `CCCOc1ccc(C(=O)NCCc2ccccc2)cc1` it was 648 nM; in that of `O/C(=C\c1ccc2ccccc2n1)c1ccc(O)cc1O`, 954 nM.
As for `CC(C)N=c1scc(-c2ccco2)n1/N=C/c1ccc(O)c(O)c1`, the figure is 6500 nM.
For `CCOC(=O)c1sc2nc3c(cc2c1N)COC(C)(CC)C3` (centres undefined), the EC50 was 1450 nM.
As for `O=C(/C=C/c1ccc(Cl)cc1Cl)Nc1cccc(S(=O)(=O)NC2=NCCC2)c1`, the figure is 1300 nM; as for `CC(=O)N(/N=C1\Sc2ccccc2C1=O)c1cccc(C)c1`, 22300 nM.
As to `CC(=O)Nc1ccc2oc(-c3ccccc3Br)nc2c1`, the EC50 is 1060 nM.
In the case of `O=C(CSc1ncnc2ccccc12)c1ccco1`, the EC50 is 4150 nM.
Regarding `Nc1ccc(/C=C/C(=O)c2cccs2)cc1`, the EC50 was 8720 nM.
As for `Cc1ccc2nc(/C=C/c3cccc(F)c3)ccc2c1`, the figure is 3070 nM.
In the case of `c1ccc(COc2ccc(OCCCn3cncn3)cc2)cc1` it was 19800 nM; in that of `O=c1oc2ccccc2cc1-c1csc(Nc2ccc(O)cc2)n1`, 3230 nM; in that of `COc1ccc2nc(SCC(C)=O)c(C#N)cc2c1`, 1900 nM.
As for `Cc1occc1C(=O)N/N=C/C(Br)=C/c1ccccc1`, the figure is 1640 nM; as for `Cc1nc(NC(=O)c2csc3ccccc23)sc1C`, 943 nM; as for `Cc1ccc2nc(-c3ccc(NC(=O)COC(=O)c4ccc(Br)o4)cc3)sc2c1`, 485 nM.
Take `O=C(NCCC1=CCCCC1)c1ccc(Cl)cc1`: the EC50 is 198 nM.
In the case of `N/C(=N\OC(=O)c1cccc(Br)c1)c1ccccc1` it was 23200 nM; in that of `Cc1ccc(C(=O)Nc2ccc3c(c2)CCC3)o1`, 31000 nM (inactive); in that of `Fc1ccc(-c2nc3n(n2)Cc2ccccc2-3)cc1`, 125 nM.
On to `O=[N+]([O-])c1cc(Cl)ccc1-c1nc(-c2ccccc2)no1`, for which the half-maximal effective concentration (EC50) was 3200 nM.
In the case of `COc1cccc(C(=O)/C=C/Nc2cccc(O)c2)c1` it was 1290 nM.
In the case of `Cc1ccc(-c2nc(-c3ccccc3)no2)cc1`, the EC50 was 925 nM.
As for `Nc1nn(-c2cccc(F)n2)cc1-c1ccc(Cl)cc1`, the figure is 675 nM.
